# Results from patent US6599548B2, “Ambient stable beverage” (priority 2000, dated 2003).
# Like-named read-outs stand apart in the source and are kept apart here.
# Key:
# Type in all cases: cell-based
# fungi = assay: Fungicidal activity of pasteurisation adjuncts at 50° C. versus 30° C. (MIC50); details: for Importance: rating of importance as pasteurisation adjunct
# Procedure: In the table the minimum inhibitory concentration (MIC) is given for each compound as well as the molecular weight (M.W.), the logPoct and a rating of its importance. […] The logPoct, that is the logarithm of the partition coefficient of the relevant compound in octanol and thus a measure of its […], was determined using […]™ software from the CHEMOFFICE ULRA ENHANCED 2000™ software package (version 5.5) that is commercially available from CambridgeSoft.
# [1] = Minimum inhibitory concentration (MIC) of antimicrobials / essential oils
# From the text: The minimum inhibitory concentration (MIC) is given for each compound.
# In each case the respective minimum inhibitory concentration (MIC) and their specific preferred concentration is also given.
# [2] = tested on: yeast Saccharomyces cerevisiae X2180-1B; assay: Yeast growth in Ready to Drink tea (0.14% tea, pH 3.4) after 2 min at temperature, OD 600 nm at 14 days; details: RTD tea; for prevention of yeast growth by low levels of the adjunct: adjunct 0-12 ppm in combination with cinnamic acid 0-60 ppm
# [3] = read-out: MIC50 in ppm (in brackets under the mM value)
# [4] = minimum inhibitory concentration, fungicidal activity when heated to 50° C.
# [5] = Table I, preferred essential oils
# [6] = Table II, particularly preferred essential oils
# [7] = 20° C., adjunct 0-12 ppm, cinnamic acid 0-60 ppm
Compound,Importance (fungi),other results
CCCCCCCCCC=CC=O [2-Dodecenal],High,MIC50 (fungi; [3]): < 9 µg/mL
CC(C)C(=O)OCCOc1ccccc1 [2-Phenoxylethyl isobutyrate],High,–
CCCCCCCCCCC=CC=O [2-Tridecenal],High,MIC50 (fungi; [3]): < 9.8 µg/mL
CCCCCCCCCC(C)=O [2-Undecanone],High,–
C=CCOC(=O)CCC1CCCCC1 [Allyl cyclohexanepropionate],High,–
CCCCCOC(=O)CCCCC [Amyl hexanoate],High,–
O=C(c1ccccc1)C(O)c1ccccc1 (centres unmarked) [Benzoin],10,–
CCCCCCC(=O)OCCCC [Butyl heptanoate],High,–
C=C(C)C1CC=C(C)C(OC(=O)CC)C1 (centres unmarked) [Carvyl propionate],–,MIC50 (fungi; [4]): 5 mM
O=C(O)C=Cc1ccccc1 [Cinnamic acid],–,"MIC [1, 5]: 148 µg/mL; MIC (ppm) [1, 6]: 148 ppm"
CC(C)c1ccc(CO)cc1 [Cumic alcohol],–,"MIC (ppm) [1, 5]: 450 ppm; MIC (ppm) [1, 6]: 450 ppm"
CCCCCCCCCCOC(C)=O [Decyl acetate],High,"effect on yeast growth at low temperature [2, 7]: little effect; effect on yeast growth at low temperature ([2]; FIGS. 23, 24, adjunct alone 0-200 ppm, low temperature): little effect; prevention of yeast growth by low levels of the adjunct [2]: prevention of yeast growth; fungicidal activity at 30° C. (fungi): no fungicidal activity; fungicidal activity when heated to 50° C. (fungi): significant fungicidal activity"
CCCCCCCCCCOC(=O)CC [Decyl propionate],High,–
C=C(C)C1CCC(C)C(O)C1 (centres unmarked) [Dihydrocarveol],–,"MIC (ppm) [1, 5]: 540 ppm"
CCCCCCCC=CC(=O)OCC [Ethyl 2-decenoate],High,–
C=CCCCCCCCCC(=O)OCC [Ethyl 10-undecenoate],High,–
CCCCCCCCCC(=O)OCC [Ethyl decanoate],High,–
CCCCCCCCC(=O)OCC [Ethyl nonanoate],High,–
CC(=O)OC/C=C(\C)CCC=C(C)C [Geranyl acetate],High,–
CC(=O)CC/C=C(\C)CCC=C(C)C [Geranyl acetone],High,–
CCCC(=O)OC/C=C(\C)CCC=C(C)C [Geranyl butyrate],High,–
CCC(=O)OC/C=C(\C)CCC=C(C)C [Geranyl propionate],High,–
CCCCCCCOC(=O)CCC [Heptyl butyrate],High,–
CCCCCCOC(=O)CCCCC [Hexyl hexanoate],High,–
CCCCCC(=O)OCCC(C)C [Isoamyl hexanoate],High,–
CCCCCCCCCCCC(=O)O [Lauric acid],High,MIC50 (fungi; [3]): 20 µg/mL
CCCCCCCCCCCCO [Lauric alcohol],High,"effect on yeast growth at low temperature [2, 7]: little effect; prevention of yeast growth by low levels of the adjunct [2]: prevention of yeast growth; MIC50 (fungi; [4]): 0.1 mM; MIC50 in ppm (in brackets under the mM value) (fungi; [4]): (18.6 ppm"
CCCCCCCCCCCC=O [Lauric aldehyde],High,MIC50 (fungi; [4]): 0.2 mM; MIC50 in ppm (in brackets under the mM value) (fungi; [4]): (36 ppm

Compound,Importance (fungi),other results
CCCCCCCCCC(=O)OC [Methyl decanoate],High,–
CCCCCCCCCCCC(=O)OC [Methyl laurate],High,–
CCCCCCCCC(=O)OC [Methyl nonanoate],High,–
CCCCCCCCCCC(=O)OC [Methyl undecanoate],High,–
CC=CCCCCCCCC(=O)OC [Methyl-9-undecenoate],High,–
CCCCCCCCCCCCCC(=O)O [Myristic acid],High,–
CC1(C)C2CC=C(CO)C1C2 (centres unmarked) [Myrtenol],–,"MIC (ppm) [1, 5]: 137 ppm; MIC (ppm) [1, 6]: 137 ppm"
CC1CCC(C(C)C)C(O)C1 (centres unmarked) [Neomenthol],–,"MIC (ppm) [1, 5]: 156 ppm"
C=CC(C)(O)CCC=C(C)CCC=C(C)C (centres unmarked) [Nerolidol],High,–
CC(C)=CCC/C(C)=C\COC(=O)C(C)C [Neryl isobutyrate],High,–
CCCCCCCCCOC(C)=O [Nonyl acetate],High,–
CCCCCCCCOC(=O)CCC [Octyl butyrate],High,–
CCCCCC(=O)OCCc1ccccc1 [Phenethyl hexanoate],High,–
CC(=O)OCc1ccc2c(c1)OCO2 [Piperonyl acetate],–,"MIC [1, 5]: 242 µg/mL; MIC (ppm) [1, 6]: 242 ppm"
"CC=CC=CC=O [Sorbic aldehyde (2,4-hexadienal)]",–,"MIC (ppm) [1, 5]: 86 ppm"
CCCCCCCCCCCCC=O [Tridecanal],High,–
CCCCCCCCCCCCC(=O)O [Tridecanoic acid],High,–
CCCCCCCCCCCCCO [Tridecanol],High,–
O=C1CCCCCCCCCCCCCCO1 [w-Pentadecalactone],–,MIC50 (fungi; [4]): 60 mM
C/C(C=O)=C\c1ccccc1 [α-Methyl-trans-cinnamaldehyde],–,"MIC (ppm) [1, 5]: 58.4 ppm"
C=C1CC/C=C(\C)CC[C@@H]2[C@@H]1CC2(C)C [β-Caryophylene],–,MIC50 (fungi; [4]): 70 mM
CCCCCC1CCC(=O)O1 (centres unmarked) [γ-Nonanoic lactone],–,"MIC (ppm) [1, 5]: 63 ppm"
CCCCCCCC1CCC(=O)O1 (centres unmarked) [γ-Undecalactone],–,"MIC (ppm) [1, 5]: 28 ppm"
CCCC1CCCC(=O)O1 (centres unmarked) [δ-Octalactone],–,"MIC (ppm) [1, 5]: 568 ppm"
Tolualdehyde,–,"MIC (ppm) [1, 5]: 240 ppm"
methyl decenoate,–,fungicidal activity at 30° C. (fungi): no fungicidal activity; fungicidal activity when heated to 50° C. (fungi): significant fungicidal activity
w-6-Hexadecalactone,–,MIC50 (fungi; [4]): 50 mM
